Where two headings read alike, the source gives them in different places.
Experiments:
RWPE-ERG cells = experiment: MTS cell viability assay, RWPE-ERG; assay type: cell-based; conditions: increasing concentrations (0.2 to 25 μM), 72 h
Method: Twenty four hours later, 100 μL of medium containing vehicle control or compounds. Each treatment was prepared in triplicate. After a 72 h treatment, cellular viability was assessed using CellTiter 96 ® Aqueous One Solution Cell Proliferation Assay reagent (Promega) according to the manufacturer's instructions. Values were normalized to the DMSO control. page 8: Supplementary Figure 4: VPC-18005 suppresses migration, but not growth of RWPE-1-ERG cells. (A) Cell viability (MTS) of ERG-expressing cells (RWPE-ERG) (closed circle) and non-ERG expressing cells (RWPE-MOCK (open square)) after treatment […] Impact on viability is presented as the mean ± SEM […] (B) RWPE-1-Mock or (C) […] The normalized cell index is a measure of the migration of the cells through the pores of the upper chamber and is used as the migration index. Dotted lines represent 1 standard deviation (SD) of the mean migration rate.

ERG = target: T1, ERG (Homo sapiens, UniProt P11308); experiment: Dual reporter luciferase assay (pETS-luc) in VCaP cells; assay type: cell-based; conditions: 0.1-100 μM, 48 h treatment
T1 construct: VCaP (endogenous overexpression); endogenous in cells; host or cells: VCaP (whole cells for A2 and A17; nuclear extract for A16)
T1 sequence (P11308 33-479 limits assumed): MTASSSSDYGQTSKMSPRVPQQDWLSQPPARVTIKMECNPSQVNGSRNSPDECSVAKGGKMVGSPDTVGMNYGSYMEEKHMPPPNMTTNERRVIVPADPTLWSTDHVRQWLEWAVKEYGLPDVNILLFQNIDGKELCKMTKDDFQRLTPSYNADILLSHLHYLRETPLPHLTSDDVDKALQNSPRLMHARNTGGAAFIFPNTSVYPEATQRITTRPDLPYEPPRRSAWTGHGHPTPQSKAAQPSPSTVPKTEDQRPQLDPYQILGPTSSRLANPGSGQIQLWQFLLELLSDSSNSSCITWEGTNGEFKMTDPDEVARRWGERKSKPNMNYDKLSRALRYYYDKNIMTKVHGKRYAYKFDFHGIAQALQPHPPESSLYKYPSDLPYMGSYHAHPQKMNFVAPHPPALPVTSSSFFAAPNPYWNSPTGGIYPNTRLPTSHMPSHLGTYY
Method: All of the compounds selected from the virtual screening were tested in a luciferase-based ERG-responsive reporter assay, using two ERG-overexpressing cell lines, VCaP and PNT1B-ERG, previously developed in house. […] Data were normalized first to Renilla luciferase and then to the DMSO-media control on each plate, unless otherwise stated. Initial hit compounds were identified as those with an average normalized luciferase reading (firefly luciferase/Renilla luciferase readings) that is 60% or less of the average normalized luciferase reading of the DMSO-media control (i.e. 40% or more reduction of luciferase activity) at 10 μM. Representative example of raw Renilla luciferase readings presented in Supplementary Figure 9B. The luciferase assays were repeated for each lead compound under multiple concentrations (0.1 to 100 μM) to establish a dose-dependent response and an IC50 value. AR reporter assay was performed as previously described.

VCaP cells = experiment: MTS cell viability assay, VCaP; assay type: cell-based, human; conditions: 72 h
Method: 3-(4,5-dimethylthiazol-2-yl)-5-(3-carboxymethoxyp henyl)-2-(4-sulfophenyl)-2H-tetrazolium, inner salt (MTS). Cells were seeded at a density of 3000 cells per well (except VCaP at 20,000/well) in 100 μL of appropriate media in 96 well culture dishes. Twenty four hours later, 100 μL of medium containing vehicle control or compounds. Each treatment was prepared in triplicate. After a 72 h treatment, cellular viability was assessed using CellTiter 96 ® Aqueous One Solution Cell Proliferation Assay reagent (Promega) according to the manufacturer's instructions. Values were normalized to the DMSO control.

[1] = Compound solubility and stability (LC-PDA-MS); assay type: physicochemical
Method: This […] […] Data was analyzed using FlowJo Eppendorf tubes. Saturated PBS samples were further software (TreeStar, USA). […] After 24 h, plates were treated with vehicle control, […] and a Quattro Premier (Waters). […] […] diluting stocks (50 mM in DMSO) 1000x in Methanol (standard), PBS, or media. Resulting solutions were clarified by centrifugation and an aliquot of the supernatant was extracted with 2 volumes acetonitrile. VPC-18005 solubility determined as fraction remaining as quantified by LC-PDA-MS versus the methanol solution as standard.

ETS domain of PU.1 = ETS domain of PU.1 (Homo sapiens, UniProt P17947); experiment: Preliminary NMR spectroscopic experiments, PU.1; assay type: binding
ERG-ETS/DNA complex = target: T2, ERG-ETS/DNA complex (Homo sapiens, UniProt P11308); experiment: EMSA competition, purified ERG-ETS domain and dsDNA; assay type: binding; conditions: for Disruption of recombinant ERG-ETS/DNA complex formation: up to 8 mM
T2 construct: A pET28a plasmid encoding residues 307–400 of the ERG-ETS domain; His6 (cleaved yes); made in house; host or cells: E. coli BL21 (λDE3)
T2 sequence (P11308 307-400): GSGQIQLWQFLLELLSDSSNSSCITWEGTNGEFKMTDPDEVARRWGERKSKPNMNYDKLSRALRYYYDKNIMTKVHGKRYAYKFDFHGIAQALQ
Method: To prepare the probe for the gel shift assay, equal amounts (200 nM) of Alexa-488 fluorophore-labeled DNAs ([NT] and its complement) were mixed, heated to 95°C for 30 minutes, and then slowly cooled to 25°C in several hours. […] The gel was scanned with Typhoon 9200 Imager equipped with blue laser to excite at 490 nm and fluorescence was measured at 520 nm. The scanned image was analyzed with Image J [48]. […] The result of this initial study was used to set the molar ratio of ERG-ETS domain:DNA in subsequent competition assays with VPC-18005. […] The data were fit to the equation for competitive binding, fb,i = [ERG]/([ERG] + KD{1 + [VPC-18005]i/KI}), where KI is the inhibitor dissociation constant and the fraction bound, fb,i, was calculated the intensity of the bound DNA band at each titration point relative to that without added VPC-18005. A control experiment was carried out by titrating with equivalent quantities of DMSO.

| Compound | Effect on cell viability (MTS), RWPE cells overexpressing ERG (RWPE-ERG cells) | IC50 (ERG) [µM] | Effect on cell viability (MTS), VCaP (VCaP cells; 0.2–25 μM) | solubility at 1 h ([1]; cell culture media (RPMI + 5% charcoal stripped serum), plasma or biological fluid, kinetic from dmso stock, RPMI + 5% CSS, 50 mM DMSO stock diluted 1,000x) [µM] | Media solubility ([1]; media) | Stability in media (fraction remaining) ([1]; media, 3 days, RT) [%] | Interaction with the ETS domain of PU.1 (ETS domain of PU.1) | Ki (ERG-ETS/DNA complex; 4 nM ERG-ETS domain, 1 nM dsDNA, read-out: KI, disruption of ERG-ETS/DNA complex formation) [µM] | Disruption of recombinant ERG-ETS/DNA complex formation (ERG-ETS/DNA complex) | Doses with inhibition of cell viability (MTS), VCaP (VCaP cells) [µM] | Media solubility [1] | Stability in media (fraction remaining) ([1]; 72 h) [%] |
| --- | --- | --- | --- | --- | --- | --- | --- | --- | --- | --- | --- | --- |
| CC(C)c1ccc(C=N/N=C2\NC(=O)[C@@H](CC(=O)O)S2)cc1 (stereo in doubt) [VPC-18005, 2-((Z)-2-(((Z)-4-isopropylbenzylidene)hydrazono)-4-oxothiazolidin-5-yl)acetic acid] | No effect on cell viability | 6 | did not decrease viability | > 50 | soluble in media | 93 | interacts | ~250 | dose-dependent disruption |  |  |  |
| COc1ccc(C(=O)CC2(O)C(=O)Nc3c(Cl)ccc(Cl)c32)cc1 (centres unmarked) [YK-4-279, reference compound] |  | 16 |  |  |  |  |  |  | did not disrupt binding | ≥ 5 | soluble | 60 |

Source: PMC5522078, “Discovery and characterization of small molecules targeting the DNA-binding ETS domain of ERG in prostate cancer” (Oncotarget, 2017)
